Data published in patent US20230248037A1, “FLAVOUR ADDITIVES” (MARS, INCORPORATED, priority 2012, published 2023).

System: cats
Experiment: 2-bottle choice difference test of tastant solutions in water, intake by cats
Set-up: species or system cat
Settings: amino acids of the second group
Experimental: Cats were allowed access to water containing either 25 mM proline+25 mM histidine with a composition comprising 50 mM histidine. The methodology used a 2-bottle choice test with 24 cats (the final number of cats for each test can vary due to data being discarded by spillage, etc.). Cats were housed individually during trial periods and had free access to water available between testing periods. The test involved a choice test between the tastant/mixture at a given concentration dissolved in deionised water versus deionised water only or another tastant/mixture. Control was made for positional bias (e.g. A/B exposure 1 and B/A exposure 2) and evaporation loss. The testing time was 36 hours (i.e. 18 hours per day, allowing a two-day crossover). Following two consecutive days of each testing, cats had two consecutive days of rest. Cats were offered a dry diet as a single meal at the start of the test period for one hour, calculated to meet the individual requirements for each cat.

SMILES	acceptance (flavour effect) in in vivo tests
N[C@@H](CC(=O)O)C(=O)O [aspartic acid]	positive acceptance
N[C@@H](CSSC[C@H](N)C(=O)O)C(=O)O [cystine]	positive acceptance
N[C@@H](CCC(=O)O)C(=O)O [glutamic acid]	positive acceptance
NC(=O)CC[C@H](N)C(=O)O [glutamine]	positive acceptance
O=C(O)[C@@H]1C[C@@H](O)CN1 [hydroxyproline]	positive acceptance
CC[C@H](C)[C@H](N)C(=O)O [isoleucine]	positive acceptance
NCCCC[C@H](N)C(=O)O [lysine]	positive acceptance
NCCC[C@H](N)C(=O)O [ornithine]	positive acceptance
O=C(O)[C@@H]1CCCN1 [proline]	positive acceptance
C[C@@H](O)[C@H](N)C(=O)O [threonine]	positive acceptance
CC(C)[C@H](N)C(=O)O [valine]	positive acceptance

System: T1R1/T1R3 receptor (umami receptor)
Experiment: In vitro screening for binding and activation of the umami receptor
Assay type: cell-based, cat
Settings: feline umami receptor
Experimental: In vitro screening was carried out in order to establish which first amino acids bind and activate the umami receptor.
In vitro screening was carried out in order to establish which second amino acids bind and activate the umami receptor.

SMILES	binding to the feline umami receptor
N[C@@H](CC(=O)O)C(=O)O [aspartic acid]	does not bind
N[C@@H](CCC(=O)O)C(=O)O [glutamic acid]	does not bind

Same assay, conditions: in silico modelling and in vitro assays using a non-human umami receptor; screening in the presence of 0.2 mM IMP

SMILES	binding to and activation of the umami receptor
C[C@H](N)C(=O)O [alanine]	able to bind to and activate the umami receptor to different extents
NC(=O)C[C@H](N)C(=O)O [asparagine]	able to bind to and activate the umami receptor to different extents
N[C@@H](CS)C(=O)O [cysteine]	able to bind to and activate the umami receptor to different extents
NCC(=O)O [glycine]	able to bind to and activate the umami receptor to different extents
N[C@@H](Cc1c[nH]cn1)C(=O)O [histidine]	able to bind to and activate the umami receptor to different extents
CC(C)C[C@H](N)C(=O)O [leucine]	able to bind to and activate the umami receptor to different extents
CSCC[C@H](N)C(=O)O [methionine]	able to bind to and activate the umami receptor to different extents
N[C@@H](Cc1ccccc1)C(=O)O [phenylalanine]	able to bind to and activate the umami receptor to different extents
N[C@@H](CO)C(=O)O [serine]	able to bind to and activate the umami receptor to different extents
N[C@@H](Cc1c[nH]c2ccccc12)C(=O)O [tryptophan]	able to bind to and activate the umami receptor to different extents
N[C@@H](Cc1ccc(O)cc1)C(=O)O [tyrosine]	able to bind to and activate the umami receptor to different extents
